Source: patent US12691124B2, “Methods of controlling and improving brain health” (ICAHN SCHOOL OF MEDICINE AT MOUNT SINAI, priority 2019, dated 2026)

Legend:
microglia in vivo = assay: TRAP of microglia from striatum and cerebellum after chronic IBET858; set-up: species or system mouse; conditions: 30 mg/kg i.p. once daily, two weeks
Method: Cx3Cr1^CreErt2/+; Efl10a mice were orally gavaged 5 times with tamoxifen to induce the expression of gfp-labelled ribosome. Mice were intraperitoneally injected with IBET858 (30 mg/kg) or vehicle control once daily for two weeks. Four hours after either an acute (1 injection) or chronic (2 weeks) injection, mice were decapitated and used for TRAP.
To better understand how IBET858 affects microglia in their homeostatic state, translating ribosome affinity purification (TRAP) after chronic IBET858 administration was used. TRAP is ideal because it prevents the induction of immediate early and pro-inflammatory genes caused by other isolation protocols which can occlude homeostatic transcriptional profiles. Ayata et al., “Epigenetic Regulation of Brain Region-Specific Microglia Clearance Activity,” Nature Neuroscience 21:1049-1060 (2018), which is hereby incorporated by reference in its entirety. As observed in vitro, microglial lineage is maintained after chronic BET inhibition IBET858 as indicated by expression of Hexb, Fcrls, and Fcer1g in either the striatum or cerebellum (FIG. 4B). […] This is especially important because loss of these region-specific gene expression signatures is highly detrimental to brain function. Ayata et al., “Epigenetic Regulation of Brain Region-Specific Microglia Clearance Activity,” Nature Neuroscience 21:1049-1060 (2018), which is hereby incorporated by reference in its entirety. […] Therefore it is likely that BET inhibition can prevent or modulate pathological microglial activation in vivo as occurs during neurodegeneration.

BRD2 or BRD4 = assay: ChIP sequencing, BRD2 or BRD4 promoter occupancy versus gene expression; type: cell-based, mouse
Method: Chromatin Immunoprecipitation with Sequencing. Primary cortical neuronal cultures were washed once with PBS then fixed for 10 minutes with a 1% formaldehyde solution in PBS with protease inhibitors (Sigma #P8340) at room temperature. Fixation was quenched adding glycine to a final concentration of 0.125M (5 minutes, room temperature). 10e6 fixed cells were resuspended in 1 ml of lysis buffer (50 mM Hepes KOH, pH7.5, 140 mM NaCl, 1 mM EDTA, 10% glycerol, 0.5% NP-40, 0.25% Triton X-100) and 10 ul of protease inhibitor cocktail (PIC). Samples were rotated for 10 minutes at 4 degrees then spun at 1350 g at 4 C for 10 minutes. Pellets were resuspended in 1 ml of lysis buffer 2 (10 mM Tris-HCl pH8.0, 200 mM NaCl, 1 mM EDTA, 0.5 mM EGTA) and 10 ul PIC.). 5e6 nuclei were sonicated in lysis buffer 3 (10 mM Tris-HCl pH8.0, 100 mM NaCl, 1 mM EDTA, 0.5 mM EGTA, 0.1% Na-Deoxicholate, 0.5% N-Lauroylsarcosine) at 4 degrees for 5 cycles of 30 seconds ON/30 seconds OFF using the Diagenode bioruptor. After, 30 ul of 10% Triton-X100 was added to each sample and then spun for 15 minutes at 20,000 g at 4 degrees. Sonication efficiency was checked by running the samples on a 2% agarose gel to confirm enrichment for fragments from 200-500 bps.
Streptavidin M-280 dynabeads were blocked with 0.5% BSA solution and coupled to 7 ug of antibody (Brd4 #Ab84778, Brd2 Bethyl #A302-583A, Pol2 Ser5 #Ab5408) for at least 8 hours at 4 degrees, rotating. Antibody-coupled beads were then added to sonicated chromatin (20e6 cells for Brd2/Brd4, 10e6 for Pol2) and incubated overnight at 4 degrees. After washing the IPs eight times with wash buffer (50 mM Hepes-KOH pH7.6, 100 mM LiCl, 1 mM EDTA, 1% NP-40, 0.7% Na-Deoxycholate) and once with TE buffer (10 mM Tris-HCl, 1 mM EDTA, 50 mM NaCl), Chromatin was eluted from magnetic beads in 200 ul elution buffer ([…] Tris-HCl pH8.0, 10 mM EDTA, 1% SDS) for 45 minutes at 65 degrees. Samples were de-crosslinked overnight at 65 degrees and proteins and RNA were removed by incubating with RNAse and proteinase k. Samples were purified using the Qiagen PCR purification kit according to the manufacturers protocol.
Samples were end-repaired using the End-IT DNA End-Repair Kit (#ER0720). After 45 minutes incubation, samples were purified using the Qiagen PCR Clean up kit as described above. Samples were adenylated using a reaction mix (200 uM dATP, 1× Klenow buffer NEB2, Klenow Fragment (3′ to 5′ exo-), NEB M0212L) and incubating at 37 degrees for 30 minutes. After, samples were purified as above except using the Minelute columns to minimize sample loss. Adapters were ligated to samples using a reaction mix containing T4 DNA ligase buffer, Solexa adapter oligo mix and 1200 units of T4 DNA ligase. The samples were incubated according to the following PCR program: 1) 20 C for 15 min, 2) 4 C for 2 h, 3) 0.1 C/sec to 16 C, 4) 16 C for 20 min, 5) 0.1 C/sec to 4 C, 6) back to step 2 for 6 cycles. Samples were purified using the Minelute kit as described above. Samples were amplified using a reaction mix containing the Phusion HF buffer, 300 uM dNTP mix, 3% DMSO, diluted Solexa primers 1.0 and 2.0, and 1 unit of Phusion polymerase. Samples were amplified according to the following program: 1) 30 sec at 98 C, 2) 18 cycles of: 10 sec at 98 C, 30 sec at 65 C, 30 sec at 72 C, 3) 5 min 72 C. Prepared samples were then sequenced on the HiSeq 2000 platform by Rockefeller's Genomic Core Facility. Bioinformatic analysis was performed by the Shen Lab. Briefly, raw sequencing data was processed by using Illumina bcl2fastq2 Conversion Software v2.17. The ChIP-seq data was first checked for quality using the various metrics generated by FastQC. Raw sequencing reads were then aligned to the mouse mm9 genome using the default settings of Bowtie (v2.2.0)87. Only uniquely mapped reads were retained, and the alignments were subsequently filtered using the SAMtools package (v0.1.19)88 to remove duplicate reads. […]

What does the source list for `CC(=O)N1c2ccc(-c3ccc(CN4CCCCC4)cc3)cc2[C@H](Nc2ccccc2)CC1C` (stereo in doubt) [IBET858]?
microglial lineage (Hexb, Fcrls, Fcer1g expression) in striatum or cerebellum (microglia in vivo): maintained; regional microglial transcriptomic heterogeneity (microglia in vivo): also unaffected; striatal microglial inflammatory genes (Ccr5, Cd180, Gpr84, Wdfy1) (microglia in vivo): suppressed; displacement of BET proteins from the chromatin (BRD2 or BRD4): displaces all three BET proteins from the chromatin; down-regulated genes that are bound by Brd2 or Brd4 (BRD2 or BRD4; 1 week IBET858, 844/1391): 61%; genes with increased promoter occupancy of BRD2 or BRD4 that are also transcriptionally upregulated (BRD2 or BRD4; 6 h IBET858): 212 genes; genes with reduced promoter occupancy of BRD2 or BRD4 that are also transcriptionally downregulated (BRD2 or BRD4; 6 h IBET858): 528 genes; down-regulated genes that are bound by Brd2 or Brd4 (BRD2 or BRD4; 12 h IBET858, 733/1158): 63%; gene promoters with reduced BET binding (BRD2 or BRD4; short-term treatment 6 h): approximately 1000 gene promoters
